Source: patent US20260297081A1, “COMPOUNDS AND METHODS OF TREATING CANCERS” (Cullgen Inc., priority 2023, published 2026)

Assays:
Assay type in all cases: cell-based
T47D cells = experiment: Anti-proliferation (viability) of ER+ breast cancer T47D cells, 6 days (Table 7, FIG. 2B); settings: Homo sapiens, 144 h; T47D cells, 6 days, 10-point serial dilution; read-out: GI IC50 in T47D
Experimental: To evaluate anti-proliferation activities of heterobifunctional compounds, NSCLC Calu-1 or ER+ breast cancer T47D cells were treated with selected heterobifunctional compounds following a 10-point serial dilution for 3 or 6 days, respectively.
To verify that heterobifunctional compound-mediated degradation is dependent on the binding to CDK4-cyclin D complex, a negative control compound, CPD-143, which is derived from active heterobifunctional compound CPD-10 was designed. CPD-143 bears the same DDB1 ligand and linker as CPD-10 but with a modified warhead to impair the binding of the control compound to CDK4.

Calu-1 cells = experiment: Anti-proliferation (viability) of NSCLC Calu-1 cells, 3 days (Table 7, FIG. 2B); settings: Homo sapiens, 72 h; Calu-1 cells, 3 days, 10-point serial dilution; read-out: GI IC50 in Calu-1
In short: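 Treatment length differs by line: Calu-1 cells receive degrader for 3 days, T47D cells for 6 days, each over a 10-point dilution series. A warhead-modified analogue with unchanged DDB1 binder and linker served as the non-CDK4-binding control.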

CDK4 [1] = target: T1, CDK4 (Homo sapiens, UniProt P11802+Q16531); experiment: CDK4 percentage degradation in Calu-1 cells (Table 6); design: Cells that express cyclin D1-3 and CDK4/6 proteins were treated with heterobifunctional compounds; endogenous in cells; host or cells: Calu-1; settings: 16 hours; for inhibition at 0.04 µM: 40 nM; for inhibition at 0.2 µM: 200 nM
In short: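 Calu-1 cells exposed to heterobifunctional compounds at 40 nM or 200 nM for 16 h. Cyclin D1 and CDK4 levels measured by Western blot of RIPA lysates (BCA-normalised loading), bands quantified by densitometry and expressed as percentage degradation.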
Target sequence in this assay (P11802 2-303 limits assumed): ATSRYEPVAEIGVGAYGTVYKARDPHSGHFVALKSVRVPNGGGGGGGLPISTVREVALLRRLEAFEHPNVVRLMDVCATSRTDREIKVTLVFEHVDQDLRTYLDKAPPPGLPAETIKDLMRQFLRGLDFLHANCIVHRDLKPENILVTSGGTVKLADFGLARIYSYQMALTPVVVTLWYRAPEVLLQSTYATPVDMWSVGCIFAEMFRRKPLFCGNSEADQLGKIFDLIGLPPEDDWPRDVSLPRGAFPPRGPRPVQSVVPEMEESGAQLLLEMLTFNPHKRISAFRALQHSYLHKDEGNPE
Target sequence in this assay (P24385 whole entry partner): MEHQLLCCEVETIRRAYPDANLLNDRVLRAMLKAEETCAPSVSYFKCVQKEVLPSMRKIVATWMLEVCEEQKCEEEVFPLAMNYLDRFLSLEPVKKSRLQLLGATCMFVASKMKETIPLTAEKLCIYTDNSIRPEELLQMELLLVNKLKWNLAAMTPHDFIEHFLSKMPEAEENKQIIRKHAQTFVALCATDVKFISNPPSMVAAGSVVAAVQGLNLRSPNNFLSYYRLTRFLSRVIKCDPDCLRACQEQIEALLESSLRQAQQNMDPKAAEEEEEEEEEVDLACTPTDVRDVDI
Target sequence in this assay (Q16531 2-1140 limits assumed): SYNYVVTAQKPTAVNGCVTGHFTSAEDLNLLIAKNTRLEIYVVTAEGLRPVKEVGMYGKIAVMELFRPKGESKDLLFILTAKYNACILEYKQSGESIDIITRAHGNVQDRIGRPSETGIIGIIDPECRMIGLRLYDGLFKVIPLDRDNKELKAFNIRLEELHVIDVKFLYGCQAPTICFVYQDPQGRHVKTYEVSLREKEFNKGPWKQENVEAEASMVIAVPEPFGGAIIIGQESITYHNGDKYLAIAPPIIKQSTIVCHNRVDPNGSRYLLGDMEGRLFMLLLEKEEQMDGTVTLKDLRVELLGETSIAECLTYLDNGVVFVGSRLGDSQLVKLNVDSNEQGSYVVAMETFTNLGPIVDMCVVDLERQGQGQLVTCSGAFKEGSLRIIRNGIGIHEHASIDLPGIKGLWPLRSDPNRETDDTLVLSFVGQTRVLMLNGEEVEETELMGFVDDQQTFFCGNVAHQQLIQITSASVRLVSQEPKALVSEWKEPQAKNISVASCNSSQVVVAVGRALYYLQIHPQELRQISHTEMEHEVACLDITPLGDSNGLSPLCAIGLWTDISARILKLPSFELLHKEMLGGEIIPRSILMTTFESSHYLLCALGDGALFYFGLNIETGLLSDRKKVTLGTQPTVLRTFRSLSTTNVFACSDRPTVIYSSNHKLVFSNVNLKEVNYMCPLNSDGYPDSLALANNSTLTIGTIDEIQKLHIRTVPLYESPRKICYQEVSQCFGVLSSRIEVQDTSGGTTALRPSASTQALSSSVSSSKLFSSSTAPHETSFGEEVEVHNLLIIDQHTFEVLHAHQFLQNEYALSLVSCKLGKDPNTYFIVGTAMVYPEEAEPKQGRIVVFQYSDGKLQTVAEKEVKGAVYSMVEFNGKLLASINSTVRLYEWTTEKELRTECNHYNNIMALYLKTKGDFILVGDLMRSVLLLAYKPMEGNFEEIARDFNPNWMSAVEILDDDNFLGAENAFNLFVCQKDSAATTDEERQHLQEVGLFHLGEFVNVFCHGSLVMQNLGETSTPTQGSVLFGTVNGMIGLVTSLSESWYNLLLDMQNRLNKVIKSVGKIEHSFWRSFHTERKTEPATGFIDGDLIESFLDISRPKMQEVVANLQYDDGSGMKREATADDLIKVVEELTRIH

MCF7 cells = experiment: Anti-proliferation (viability) of MCF7 cells (Table 7, FIG. 2B); settings: Homo sapiens, MCF7, MCF7 cells, 3-6 days, 10-point serial dilution; read-out: GI IC50 in MCF-7
CDK4 [2] = target: T1, CDK4; experiment: HiBiT detection of HiBiT-tagged CDK4 protein level in MCF7 cells, 16 hours (Table 8); design: expressed in transfected cells; host or cells: MCF7; settings: MCF7 cells stably expressing HiBiT tagged target proteins
Experimental: HiBiT detection system quantitatively measures total amounts of HiBiT-tagged proteins using a luminescent based method. MCF7 cells stably expressing HiBiT tagged target proteins were treated with heterobifunctional compounds at indicated concentrations for 16 hours, then lysed with Nano-Glo HiBiT Lytic detection reagents.
Target sequence in this assay (P11802 whole entry): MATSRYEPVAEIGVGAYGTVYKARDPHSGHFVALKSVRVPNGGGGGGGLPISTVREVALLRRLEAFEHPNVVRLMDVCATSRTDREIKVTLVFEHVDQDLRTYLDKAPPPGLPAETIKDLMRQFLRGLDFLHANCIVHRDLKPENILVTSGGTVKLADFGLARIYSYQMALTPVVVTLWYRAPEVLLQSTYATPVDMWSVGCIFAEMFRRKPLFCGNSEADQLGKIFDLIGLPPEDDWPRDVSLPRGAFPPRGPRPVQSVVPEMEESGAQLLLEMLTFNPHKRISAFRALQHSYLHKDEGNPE
Target sequence in this assay (P24385 whole entry partner): as the sequence (P24385 whole entry partner) above
Target sequence in this assay (Q16531 2-1140 limits assumed): as the sequence (Q16531 2-1140 limits assumed) above

CC(=O)c1c(C)c2cnc(Nc3ccc(N4CCN(CC(=O)NCCCCCNc5nc(C#N)ccc5C(=O)Nc5ccc(N(C)C)nn5)CC4)cn3)nc2n(C2CCCC2)c1=O [CPD-28, 2-((5-(2-(4-(6-((6-Acetyl-8-cyclopentyl-5-methyl-7-oxo-7,8-dihydropyrido[2,3-d]pyrimidin-2-yl)amino)pyridin-3-yl)piperazin-1-yl)acetamido)pentyl)amino)-6-cyano-N-(6-(dimethylamino)pyridazin-3-yl)nicotinamide]
IC50 (T47D cells): ≤ 50 nM | IC50 (Calu-1 cells): 10 to 50 nM | inhibition at 0.04 µM (CDK4 [1]): 50 to 80% | inhibition at 0.2 µM (CDK4 [1]): 50 to 80%

CNc1ccc(C(=O)Nc2ccc(N(C)C)nn2)c(NC(C)CCCCNC(=O)CN2CCN(c3ccc(Nc4ncc5c(C)c(C(C)=O)c(=O)n(C6CCCC6)c5n4)nc3)CC2)n1 (stereo not drawn) [CPD-29, 2-((6-(2-(4-(6-((6-Acetyl-8-cyclopentyl-5-methyl-7-oxo-7,8-dihydropyrido[2,3-d]pyrimidin-2-yl)amino)pyridin-3-yl)piperazin-1-yl)acetamido)hexan-2-yl)amino)-N-(6-(dimethylamino)pyridazin-3-yl)-6-(methylamino)nicotinamide]
IC50 (T47D cells): 50 to 100 nM | IC50 (Calu-1 cells): 10 to 50 nM | inhibition at 0.04 µM (CDK4 [1]): 50 to 80% | inhibition at 0.2 µM (CDK4 [1]): > 80%

CNc1ccc(C(=O)Nc2ccc(N(C)C)nn2)c(NC2CC(CCNC(=O)N3CCN(c4ccc(Nc5ncc6c(C)c(C(C)=O)c(=O)n(C7CCCC7)c6n5)nc4)CC3)C2)n1 (stereo not drawn) [CPD-35, 4-(6-((6-Acetyl-8-cyclopentyl-5-methyl-7-oxo-7,8-dihydropyrido[2,3-d]pyrimidin-2-yl)amino)pyridin-3-yl)-N-(2-(3-((3-((6-(dimethylamino)pyridazin-3-yl)carbamoyl)-6-(methylamino)pyridin-2-yl)amino)cyclobutyl)ethyl)piperazine-1-carboxamide]
IC50 (T47D cells): 50 to 100 nM | IC50 (Calu-1 cells): 10 to 50 nM | inhibition at 0.04 µM (CDK4 [1]): 50 to 80% | inhibition at 0.2 µM (CDK4 [1]): 50 to 80%

CNc1ccc(C(=O)Nc2ccc(N(C)C)nn2)c(NCCCCNC(=O)CCN2CCN(c3ccc(Nc4ncc5c(C)c(C(C)=O)c(=O)n(C6CCCC6)c5n4)nc3)CC2)n1 [CPD-37, 2-((4-(3-(4-(6-((6-acetyl-8-cyclopentyl-5-methyl-7-oxo-7,8-dihydropyrido[2,3-d]pyrimidin-2-yl)amino)pyridin-3-yl)piperazin-1-yl)propanamido)butyl)amino)-N-(6-(dimethylamino)pyridazin-3-yl)-6-(methylamino)nicotinamide]
IC50 (T47D cells): ≥ 100 nM | IC50 (Calu-1 cells): 10 to 50 nM | inhibition at 0.04 µM (CDK4 [1]): 50 to 80% | inhibition at 0.2 µM (CDK4 [1]): 50 to 80%

CNc1ccc(C(=O)Nc2ccc(C)c(C3CC3)n2)c(NC2CC3(CC(NC(=O)CN4CCN(c5ccc(Nc6ncc7c(C)c(C(C)=O)c(=O)n(C8CCCC8)c7n6)nc5)CC4)C3)C2)n1 (stereo not drawn) [CPD-57, 2-((6-(2-(4-(6-((6-Acetyl-8-cyclopentyl-5-methyl-7-oxo-7,8-dihydropyrido[2,3-d]pyrimidin-2-yl)amino)pyridin-3-yl)piperazin-1-yl)acetamido)spiro[3.3]heptan-2-yl)amino)-N-(6-cyclopropyl-5-methylpyridin-2-yl)-6-(methylamino)nicotinamide]
IC50 (T47D cells): 50 to 100 nM | IC50 (Calu-1 cells): 10 to 50 nM | inhibition at 0.04 µM (CDK4 [1]): 30 to 50% | inhibition at 0.2 µM (CDK4 [1]): > 80%

CNc1ccc(C(=O)Nc2cccc(C)n2)c(NC2CC3(CC(NC(=O)CN4CCN(c5ccc(Nc6ncc7c(C)c(C(C)=O)c(=O)n(C8CCCC8)c7n6)nc5)CC4)C3)C2)n1 (stereo not drawn) [CPD-75, 2-((6-(2-(4-(6-((6-Acetyl-8-cyclopentyl-5-methyl-7-oxo-7,8-dihydropyrido[2,3-d]pyrimidin-2-yl)amino)pyridin-3-yl)piperazin-1-yl)acetamido)spiro[3.3]heptan-2-yl)amino)-6-(methylamino)-N-(6-methylpyridin-2-yl)nicotinamide]
IC50 (T47D cells): ≤ 50 nM | IC50 (Calu-1 cells): 10 to 50 nM | inhibition at 0.04 µM (CDK4 [1]): 30 to 50% | inhibition at 0.2 µM (CDK4 [1]): 50 to 80%

CNc1ccc(C(=O)Nc2ccc(N(C)C)nn2)c(NC2CC(CNC(=O)CCN3CCN(c4ccc(Nc5ncc6c(C)c(C(C)=O)c(=O)n(C7CCCC7)c6n5)nc4)CC3)C2)n1 (stereo not drawn) [CPD-80, 2-((3-((3-(4-(6-((6-Acetyl-8-cyclopentyl-5-methyl-7-oxo-7,8-dihydropyrido[2,3-d]pyrimidin-2-yl)amino)pyridin-3-yl)piperazin-1-yl)propanamido)methyl)cyclobutyl)amino)-N-(6-(dimethylamino)pyridazin-3-yl)-6-(methylamino)nicotinamide]
IC50 (T47D cells): ≤ 50 nM | IC50 (Calu-1 cells): ≤ 10 nM | inhibition at 0.04 µM (CDK4 [1]): 50 to 80% | inhibition at 0.2 µM (CDK4 [1]): 50 to 80%

CNc1ccc(C(=O)Nc2ccc(N(C)C)nn2)c(NC2CC3(CC(CNC(=O)N4CCN(c5ccc(Nc6ncc7c(C)c(C(C)=O)c(=O)n(C8CCCC8)c7n6)nc5)CC4)C3)C2)n1 (stereo not drawn) [CPD-81, 4-(6-((6-Acetyl-8-cyclopentyl-5-methyl-7-oxo-7,8-dihydropyrido[2,3-d]pyrimidin-2-yl)amino)pyridin-3-yl)-N-((6-((3-((6-(dimethylamino)pyridazin-3-yl)carbamoyl)-6-(methylamino)pyridin-2-yl)amino)spiro[3.3]heptan-2-yl)methyl)piperazine-1-carboxamide]
IC50 (T47D cells): 50 to 100 nM | IC50 (Calu-1 cells): 10 to 50 nM | inhibition at 0.04 µM (CDK4 [1]): 30 to 50% | inhibition at 0.2 µM (CDK4 [1]): 30 to 50%

CC(=O)c1c(C)c2cnc(Nc3ccc(N4CCN(CC(=O)NCCCCCNc5nc(NC(C)(C)C)ccc5C(=O)Nc5ccc(N(C)C)nn5)CC4)cn3)nc2n(C2CCCC2)c1=O [CPD-85, 2-((5-(2-(4-(6-((6-Acetyl-8-cyclopentyl-5-methyl-7-oxo-7,8-dihydropyrido[2,3-d]pyrimidin-2-yl)amino)pyridin-3-yl)piperazin-1-yl)acetamido)pentyl)amino)-6-(tert-butylamino)-N-(6-(dimethylamino)pyridazin-3-yl)nicotinamide]
IC50 (T47D cells): 50 to 100 nM | IC50 (Calu-1 cells): ≤ 10 nM | inhibition at 0.04 µM (CDK4 [1]): < 30% | inhibition at 0.2 µM (CDK4 [1]): 50 to 80%

CNc1ccc(C(=O)Nc2ccc(N(C)C)nn2)c(NC2CCN(C(=O)CCN3CCN(c4ccc(Nc5ncc6c(C)c(C(C)=O)c(=O)n(C7CCCC7)c6n5)nc4)CC3)C2)n1 (stereo not drawn) [CPD-218, 2-((1-(3-(4-(6-((6-acetyl-8-cyclopentyl-5-methyl-7-oxo-7,8-dihydropyrido[2,3-d]pyrimidin-2-yl)amino)pyridin-3-yl)piperazin-1-yl)propanoyl)pyrrolidin-3-yl)amino)-N-(6-(dimethylamino)pyridazin-3-yl)-6-(methylamino)nicotinamide]
IC50 (MCF7 cells): 50 to 100 nM | IC50 (T47D cells): 50 to 100 nM | inhibition at 0.04 µM (CDK4 [1]): 50 to 80% | inhibition at 0.2 µM (CDK4 [1]): 50 to 80%

CNc1ccc(C(=O)Nc2ccc(N(C)C)nn2)c(NC2CCC(NC(=O)CN3CCN(c4ccc(Nc5ncc6c(C)c(C(C)=O)c(=O)n(C7CCCC7)c6n5)nc4)CC3)C2)n1 (stereo not drawn) [CPD-219, 2-((3-(2-(4-(6-((6-acetyl-8-cyclopentyl-5-methyl-7-oxo-7,8-dihydropyrido[2,3-d]pyrimidin-2-yl)amino)pyridin-3-yl)piperazin-1-yl)acetamido)cyclopentyl)amino)-N-(6-(dimethylamino)pyridazin-3-yl)-6-(methylamino)nicotinamide]
IC50 (MCF7 cells): 50 to 100 nM | IC50 (T47D cells): 50 to 100 nM | inhibition at 0.04 µM (CDK4 [1]): 50 to 80% | inhibition at 0.2 µM (CDK4 [1]): 50 to 80%

CC(=O)c1c(C)c2cnc(Nc3ccc(N4CCN(CC(=O)NC5CC6(C5)CC(Nc5nc(NC(C)C)ccc5C(=O)Nc5cn(C)c(C7CC7)n5)C6)CC4)cn3)nc2n(C2CCCC2)c1=O (stereo not drawn) [CPD-222, 2-((6-(2-(4-(6-((6-acetyl-8-cyclopentyl-5-methyl-7-oxo-7,8-dihydropyrido[2,3-d]pyrimidin-2-yl)amino)pyridin-3-yl)piperazin-1-yl)acetamido)spiro[3.3]heptan-2-yl)amino)-N-(2-cyclopropyl-1-methyl-1H-imidazol-4-yl)-6-(isopropylamino)nicotinamide]
IC50 (MCF7 cells): 50 to 100 nM | IC50 (T47D cells): ≤ 50 nM | inhibition at 0.04 µM (CDK4 [1]): 50 to 80% | inhibition at 0.2 µM (CDK4 [1]): 50 to 80%

CC(=O)c1c(C)c2cnc(Nc3ccc(N4CCN(CC(=O)NC5CC6(C5)CC(Nc5nc(NC(C)C)ccc5C(=O)Nc5cc(C)n(C)n5)C6)CC4)cn3)nc2n(C2CCCC2)c1=O (stereo not drawn) [CPD-253, 2-((6-(2-(4-(6-((6-acetyl-8-cyclopentyl-5-methyl-7-oxo-7,8-dihydropyrido[2,3-d]pyrimidin-2-yl)amino)pyridin-3-yl)piperazin-1-yl)acetamido)spiro[3.3]heptan-2-yl)amino)-N-(1,5-dimethyl-1H-pyrazol-3-yl)-6-(isopropylamino)nicotinamide]
IC50 (MCF7 cells): < 50 nM | IC50 (T47D cells): ≥ 100 nM | activity at 0.01 µM (CDK4 [2]; 10 nM, read-out: % CDK4 Relative Level (10 nM)): > 85% | activity at 0.1 µM (CDK4 [2]; 100 nM, read-out: % CDK4 Relative Level (100 nM)): 55 to 85% | inhibition at 0.04 µM (CDK4 [1]): < 30% | inhibition at 0.2 µM (CDK4 [1]): < 30%
